The test system of one assay is jun. The experiment in a line: jun / c-jun mRNA expression in chondrocytes (Northern blot). The format is cell-based, bovine. As to conditions: stimulus alone, 1 hour. The text has this:
(§1) The cytokine interleukin 1 (IL 1) has been used to identify the intermediate second messengers which regulate the expression of fos and jun.
Although IL 1 stimulated superoxide production, it was not known whether IL 1 induced fos and jun expression was dependent on the production of superoxides. In order to elucidate this possibility, the effect of DPI on fos and jun mRNA levels induced by IL 1 was investigated. RNA from chondrocytes treated with IL 1 in the presence and absence of DPI were analyzed by Northern blot analysis using either fos or collagenase cDNA probes. […] Similar data has been obtained for IL 1 induced jun expression. Furthermore, inhibition of fos and jun expression by DPI was sufficient to suppress IL 1 induced and constitutive collagenase expression.
The effect of orthovanadate and N-acetylcysteine on fos, jun and collagenase expression were examined. Bovine articular chondrocytes were isolated and plated as previously described (Kandel R. A. et al. Biochim. Biophys. Acta. 1053, 130-134, 1990). In order to determine the effect of orthovanadate on IL 1 and PMA (phorbol ester) induced responses, chondrocytes were incubated with orthovanadate (100 μM) for 2 hours before stimulation with IL 1 (10 ng/ml) or PMA ([…]). Collagenase production was determined by incubating chondrocytes for 24 hours with IL 1 or PMA and the cell conditioned medium was assayed for collagenase activity using an ELISA procedure as described previously (Kandel et al. supra). PLA2 activity was measured by incorporating ^3 H-arachidonic acid (^3 H-AA) into the cells and then incubating the cells with medium containing 1 mg/ml BSA, either alone or in the presence of IL 1 or PMA, for 10 min. as previously described (Conquer, J. A. […], Biochim. Biophys. Acta. 1134, 1-6). The amount of ^3 H-AA liberated into the supernatant was determined. […] The supernatant was analyzed by RIA using an antibody specific for PGE2 (Dr. S. A. Jones, Mount Sinai Hospital, Toronto, Canada). […]

The test system of a further assay is fos. The assay can be described thus: fos / c-fos mRNA expression in chondrocytes (Northern blot). The format is cell-based, bovine. To be noted: stimulus alone; H2 O2 30, 60 and 90 minutes; IL-1, PMA or AA (3 μM) 1 hour. As to the method:
as §1
In order to elucidate this possibility, the effect of DPI on fos and jun mRNA levels induced by IL 1 was investigated. RNA from chondrocytes treated with IL 1 in the presence and absence of DPI were analyzed by Northern blot analysis using either fos or collagenase cDNA probes.
Since superoxides are rapidly converted to hydrogen peroxide in the cell by superoxide dismutase, whether hydrogen peroxide could mimic the effect of IL 1 in the induction of fos expression was investigated. RNA was extracted from chondrocytes (Kandel et al. supra) treated with H2 O2 for 30, 60 and 90 minutes and examined by Northern blot analysis using a fos cDNA probe.
Bovine articular chondrocytes were isolated and plated as previously described (Kandel R. A. et al. Biochim. Biophys. Acta. 1053, 130-134, 1990). […] The amount of ^3 H-AA liberated into the supernatant was determined. To measure PGE2 production, chondrocytes were incubated for 6 hours in Ham's F12 medium, either alone or with IL 1 or PMA. […] In order to examine the expression of c-fos and c-jun, chondrocytes were incubated for 1 hour in the presence of IL-1, PMA or AA (3 μM). Chondrocytes were washed in PBS and the total RNA extracted as previously described (Cruz. et al, 1991, Biochem. J. 277, 327-330). RNA samples were run on formaldehyde agarose gels and transferred to nylon membrane for northern analysis using cDNA probes for c-fos and c-jun.
The RNA was extracted and examined by Northern blot analysis using cDNA probes for c-fos and collagenase.

The test system of another assay is carcinogenesis. As to conditions: G. Shklar et al.; cited from earlier work.
In the next assay the test system is c-fos. The assay can be described thus: TNFα and bFGF induced c-fos mRNA in chondrocytes (Northern blot). The format is cell-based, bovine. To be noted: 100 μM, 2 hours preincubation. As to the method:
Chondrocyte cultures were stimulated with H2 O2 (100 μM) at different time points as indicated. […] Chondrocyte cultures were preincubated with NAC (30 mM) or Asc (100 μM) for 2 hours before the addition of bFGF (10 ng/ml) or TNFα (30 ng/ml) for 30 minutes. Both human recombinant TNFα and bFGF were dissolved in phosphate buffered saline with 0.1% bovine serum albumin. NAC and Asc were first dissolved in Ham's F12 medium containing 5% (v/v) fetal bovine serum, then neutralized with sodium hydroxide. Total RNA from bovine articular chondrocytes was isolated and the c-fos mRNA levels were determined by Northern blot analysis as described herein. The blots were subsequently stripped of DNA and re-probed with ^32 p-labelled rat β tubulin cDNA.
Chondrocyte cultures were pretreated with DPI (2 μM) for 30 minutes before the addition of TNFα (30 ng/ml) or bFGF (10 ng/ml) for 30 minutes. Measurements of c-fos and tubulin mRNA levels were as described in Example 11.

The next assay concerns collagenase. The assay can be described thus: collagenase production by chondrocytes (ELISA). The format is cell-based, bovine. To be noted: stimulus alone, 24 hours. As to the method: The effect of orthovanadate and N-acetylcysteine on fos, jun and collagenase expression were examined. Bovine articular chondrocytes were isolated and plated as previously described (Kandel R. A. et al. Biochim. Biophys. Acta. 1053, 130-134, 1990). In order to determine the effect of orthovanadate on IL 1 and PMA (phorbol ester) induced responses, chondrocytes were incubated with orthovanadate (100 μM) for 2 hours before stimulation with IL 1 (10 ng/ml) or PMA ([…]). Collagenase production was determined by incubating chondrocytes for 24 hours with IL 1 or PMA and the cell conditioned medium was assayed for collagenase activity using an ELISA procedure as described previously (Kandel et al. supra). PLA2 activity was measured by incorporating ^3 H-arachidonic acid (^3 H-AA) into the cells and then incubating the cells with medium containing 1 mg/ml BSA, either alone or in the presence of IL 1 or PMA, for 10 min. as previously described (Conquer, J. A. […], Biochim. Biophys. Acta. 1134, 1-6). The amount of ^3 H-AA liberated into the supernatant was determined. To measure PGE2 production, chondrocytes were incubated for 6 hours in Ham's F12 medium, either alone or with IL 1 or PMA. The supernatant was analyzed by RIA using an antibody specific for PGE2 (Dr. S. A. Jones, Mount Sinai Hospital, Toronto, Canada). In order to examine the expression of c-fos and c-jun, chondrocytes were incubated for 1 hour in the presence of IL-1, PMA or AA (3 μM). Chondrocytes were washed in PBS and the total RNA extracted as previously described (Cruz. et al, 1991, Biochem. J. 277, 327-330). RNA samples were run on formaldehyde agarose gels and transferred to nylon membrane for northern analysis using cDNA probes for c-fos and c-jun.
In general terms: In an ELISA, binding on a coated surface is turned into a signal by an enzyme label.

In a further assay the test system is PLA2. The experiment in a line: release of 3H-arachidonic acid from chondrocytes (PLA2 activity). The format is cell-based, bovine. As to conditions: stimulus alone, 10 min. As to the method: (§2) The effect of orthovanadate and N-acetylcysteine on fos, jun and collagenase expression were examined. Bovine articular chondrocytes were isolated and plated as previously described (Kandel R. A. et al. Biochim. Biophys. Acta. 1053, 130-134, 1990). In order to determine the effect of orthovanadate on IL 1 and PMA (phorbol ester) induced responses, chondrocytes were incubated with orthovanadate (100 μM) for 2 hours before stimulation with IL 1 (10 ng/ml) or PMA ([…]). Collagenase production was determined by incubating chondrocytes for 24 hours with IL 1 or PMA and the cell conditioned medium was assayed for collagenase activity using an ELISA procedure as described previously (Kandel et al. supra). PLA2 activity was measured by incorporating ^3 H-arachidonic acid (^3 H-AA) into the cells and then incubating the cells with medium containing 1 mg/ml BSA, either alone or in the presence of IL 1 or PMA, for 10 min. as previously described (Conquer, J. A. […], Biochim. Biophys. Acta. 1134, 1-6). The amount of ^3 H-AA liberated into the supernatant was determined. To measure PGE2 production, chondrocytes were incubated for 6 hours in Ham's F12 medium, either alone or with IL 1 or PMA. The supernatant was analyzed by RIA using an antibody specific for PGE2 (Dr. S. A. Jones, Mount Sinai Hospital, Toronto, Canada). […]

The next assay deals with PGE2. The assay can be described thus: PGE2 production by chondrocytes (RIA). The format is cell-based, bovine. To be noted: stimulus alone, 6 hours. As to the method:
as §2

The next assay relates to KB8, KB8-5 and KB85-11. To be noted: stated as background; cited from earlier work.
The test system of the next assay is P388 (ADR). The assay can be described thus: MTT cytotoxicity assay, P388 (ADR). The format is cell-based, murine. To be noted: Mus musculus, P388/ADR, 72 h, read-out: IC50 Value. The method, then:
(§3) The relative cytotoxicity of various compounds on tumor cell lines was investigated as follows. Cytotoxicity was measured by the MTT microculture tetrazolium colorimetric assay for all cell lines. The relative cytotoxicity of Na3 VO4 and VOSO4 was investigated using the following tumor cell lines: P388(WT) murine leukemia, P388 (ADR) murine leukemia, Lewis murine lung, MCF7 (WT) human breast, […] human lung, K562 human erythroleukemia, A431 human epidermal, LS180 human colon and SK-OV-3 human ovarian. The relative cytotoxicity of doxorubicin, Na3 VO4 and VOSO4 was investigated using the following tumor cell lines: P388(WT) murine leukemia, P388 (ADR) murine leukemia, MCF7(WT) human breast and MCF7 (ADR) human breast. The relative cytotoxicity of BMOV, BEOV and naglivan was investigated using the following tumor cell lines: P388(WT) murine leukemia, P388 (ADR) murine leukemia, Lewis murine lung, H460 human lung, K562 human erythroleukemia, and SK-OV-3 human ovarian.
(§4) The cells were plated (number of cells/well was different from cell line to cell depending on the dividing rate) in a 96-well microculture plate 24 hours prior to the delivery of the vanadium compounds. Serial concentrations of solutions of the test compounds (0.05-100 μM) were delivered to the corresponding wells. A blank column (without cells) and a control column (with cells without vanadium) were left. The cells were incubated for 72 hours continuously. An MTT solution was added to each well after this incubation period and the cells were incubated for 4 more hours for the completion of the dyeing process. The medium was removed find DMSO was added to each well. The absorbance of each well was read with a Titertek Multiskan (310C) spectrophotometer at 570 nm. The percentage of the absorbance of each vanadium concentration relative to the control calculated and the value of the 50% growth inhibition concentration (IC50) was obtained from the % control versus concentration plot. Each assay was repeated three times and the reported IC50 values were the mean of these three runs.

For another assay, the system named is P388 (WT). The assay can be described thus: MTT cytotoxicity assay, P388 (WT). The format is cell-based, murine. To be noted: Mus musculus, P388, 72 h, read-out: IC50 Value. The method, then:
as §3, §4

Another assay relates to MCF7 (ADR). The experiment in a line: MTT cytotoxicity assay, MCF7 (ADR). The format is cell-based, human. As to conditions: Homo sapiens, NCI/ADR-RES, 72 h, read-out: IC50 Value. The method, then: as §3, §4
On the technique in general: Tetrazolium dyes change colour on reduction, which living cells bring about.

Another assay has as its system MCF7 (WT). The assay can be described thus: MTT cytotoxicity assay, MCF7 (WT). The format is cell-based, human. To be noted: Homo sapiens, MCF7, 72 h, read-out: IC50 Value. The method, then: as §3, §4
In another assay the test system is chondrocytes. The assay can be described thus: TNFα and bFGF induced ROS production in chondrocytes (DHR fluorescence). The format is cell-based. As to conditions: 4 hours in the presence of DHR. The method, then:
With time, DHR by itself caused a shift in fluorescence to the right as shown in panels a to c. A dotted line was drawn through the mean fluorescence intensity of the control (panel c) with DHR alone for 4 hours. After incubation with TNFα or bFGF for 4 hours in the presence of DHR, there was a further shift in logarithmic fluorescence intensity as indicated in panel d or f. In panels e and g, DPI abolished the fluorescent shift stimulated by TNPα and bFGF respectively.

As for `CCCCC/C=C\C/C=C\C/C=C\C/C=C\CCCC(=O)O` [AA, arachidonic acid], the “stimulation of c-jun expression” value in the assay with jun is “stimulated”. The “stimulation of fos / c-fos expression” value in the assay with fos is listed as “stimulated”.
For `O=C1O[C@H]([C@@H](O)CO)C(O)=C1O` [Asc, ascorbic acid], in the assay on carcinogenesis, the anticancer activity entry is reported as “anticancer activity”. Besides, in the assay on c-fos, the “inhibition of TNFα and bFGF induced c-fos mRNA levels” value is “inhibit”.
Consider `CCCCCCCCCCCCCC(=O)O[C@@H]1[C@@H](C)[C@@]2(O)[C@@H](C=C(CO)C[C@]3(O)C(=O)C(C)=C[C@@H]23)[C@@H]2C(C)(C)[C@]12OC(C)=O` [PMA, reference compound], for which the “stimulation of c-jun expression” value in the assay with jun is recorded as “stimulated”. Further, the “induction of collagenase production” value with collagenase is recorded as “induced”. Further, in the assay on fos, the “stimulation of fos / c-fos expression” value is on record as “stimulated”. In addition, the “induction of 3H-AA release” value with PLA2 is on record as “induced”. In the assay on PGE2, the “induction of PGE2 production” value was “induced”.
Turning to `COc1cc2c(c(OC)c1OC)-c1ccc(OC)c(=O)cc1[C@@H](NC(C)=O)CC2` [colchicine], the “killing of drug resistant cell lines by conventional chemotherapeutic agents” value (from here on “killing of drug resistant cell lines”) in the assay with KB8, KB8-5 and KB85-11 is “not killed”.
By IC50 is commonly meant the concentration at which inhibition is half-maximal. Take `COc1cccc2c1C(=O)c1c(O)c3c(c(O)c1C2=O)C[C@@](O)(C(=O)CO)C[C@@H]3O[C@H]1C[C@H](N)[C@H](O)[C@H](C)O1` [doxorubicin, reference compound]: the IC50 with P388 (ADR) stood at 3.77 µM; in the assay with P388 (WT), 23 nM; in the assay with MCF7 (ADR), 25.7 µM; in the assay with MCF7 (WT), 492 nM. Also, the “killing of drug resistant cell lines” value in the assay with KB8, KB8-5 and KB85-11 was “not killed”.
Take `CC[C@]1(O)C[C@@H]2CN(CCc3c([nH]c4ccccc34)[C@@](C(=O)OC)(c3cc4c(cc3OC)N(C)[C@H]3[C@@](O)(C(=O)OC)[C@H](OC(C)=O)[C@]5(CC)C=CCN6CC[C@]43[C@@H]65)C2)C1` [vinblastine]: in the assay on KB8, KB8-5 and KB85-11, the “killing of drug resistant cell lines” value was “not killed”.
Consider TNFα, for which, in the assay on chondrocytes, the “shift in logarithmic fluorescence intensity (ROS production)” value is “further shift”.
As for bFGF: human recombinant bFGF, the “shift in logarithmic fluorescence intensity (ROS production)” value with chondrocytes is reported as “further shift”.

The values are drawn from patent US5871779A, “Treatment of arthropathies with vanadate compounds or analogues thereof” (Mount Sinai Hospital Corporation, priority 1996, dated 1999).
